The record followed here is ChEMBL document CHEMBL2086350, “Structure-activity relationship and antitumor activity of thio-benzodiazepines as p53-MDM2 protein-protein interaction inhibitors” (Eur J Med Chem, 2012).

The term Ki denotes the dissociation constant of the complex between target and ligand, obtained from inhibition or displacement. As a reminder, the IC50 is the midpoint of a concentration-inhibition curve. Read a high IC50 as a need for much substance.

Structures are written as SMILES.

The target of test [1] is E3 ubiquitin-protein ligase Mdm2 (Homo sapiens, UniProt Q00987). Nature of the test: Inhibition of MDM2 binding domain assessed as inhibition of p53 binding to MDM2 after 1 hr by fluorescence polarization assay. On the technique in general: Polarisation of emitted light reports the rotation of a fluorescent probe.
Chain of E3 ubiquitin-protein ligase Mdm2 (Q00987 whole entry, the tested form may be a part): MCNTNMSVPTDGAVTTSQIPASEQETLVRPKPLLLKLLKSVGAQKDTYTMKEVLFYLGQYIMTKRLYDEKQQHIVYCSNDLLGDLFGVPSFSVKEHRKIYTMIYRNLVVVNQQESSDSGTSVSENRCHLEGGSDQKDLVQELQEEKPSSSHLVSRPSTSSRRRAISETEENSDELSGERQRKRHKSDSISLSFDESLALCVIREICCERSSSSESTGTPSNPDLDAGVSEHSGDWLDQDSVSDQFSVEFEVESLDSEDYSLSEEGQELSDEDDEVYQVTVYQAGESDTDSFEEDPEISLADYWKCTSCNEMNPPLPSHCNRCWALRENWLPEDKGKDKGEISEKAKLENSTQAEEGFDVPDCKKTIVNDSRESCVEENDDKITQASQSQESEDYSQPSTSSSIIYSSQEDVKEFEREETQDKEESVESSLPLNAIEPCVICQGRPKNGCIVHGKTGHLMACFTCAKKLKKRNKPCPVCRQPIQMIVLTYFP
The test system of test [2] is U2OS. Nature of the test: Antiproliferative activity against human U2OS cells expressing wild type p53 after 72 hrs by MTT assay. In general terms: Tetrazolium assays rely on reduction of a dye to a coloured formazan, in cell work by metabolically active cells.
For test [3], the system named is SAOS-2. Nature of the test: Antiproliferative activity against human p53-deficient Saos2 cells after 72 hrs by MTT assay. Conditions: SAOS-2, 72 h.
Test [4] deals with NCI-H1299. In words: Antiproliferative activity against human p53-deficient NCI-H1299 cells after 72 hrs by MTT assay. Conditions: NCI-H1299, 72 h.
In test [5] the test system is A549. In words: Antiproliferative activity against human A549 cells expressing wild type p53 after 72 hrs by MTT assay. Conditions: A549, 72 h.

Consider `COC(=O)C(c1ccc(F)cc1)N1C(=O)c2ccc(C(F)(F)F)cc2NC(=S)C1c1ccc(Cl)cc1` (centres undefined), for which the Ki in test [1] came out at 3.02 µM. Further, the IC50 turned out to be 11.8 µM in test [2], 13.7 µM in test [3], 14 µM in test [4] and 9.44 µM in test [5].

In the case of `COC(=O)C(c1ccc(Cl)cc1)N1C(=O)c2ccc(Cl)cc2N=C(SC)C1c1ccc(Cl)cc1` (centres undefined), the Ki in test [1] was greater than 100 µM. Further, the IC50 in test [2] was 67.6 µM; in test [3], greater than 100 µM; in test [4], greater than 100 µM; in test [5], greater than 100 µM.

As for `COC(=O)C(c1ccc(Cl)cc1)N1C(=O)c2ccc(OC)cc2NC(=S)C1c1ccc(Cl)cc1` (centres undefined), the Ki in test [1] was greater than 100 µM. For the same molecule, the IC50 in test [2] was 35.3 µM; in test [3], 20 µM; in test [4] it was greater than 100 µM; in test [5], greater than 100 µM.

Take `COC(=O)C(c1ccc(F)cc1)N1C(=O)c2ccc(Cl)cc2NC(=S)C1c1ccc(F)cc1` (centres undefined): the Ki in test [1] turned out to be 1.72 µM. The IC50 in test [2] was 44.3 µM; in test [3], 12.7 µM; in test [4] it was greater than 100 µM; in test [5], 25.6 µM.

As to `COC(=O)C(c1ccc(Cl)cc1)N1C(=O)c2ccc(Cl)cc2NC(=S)C1c1ccc(C(F)(F)F)cc1` (centres undefined), the IC50 in test [2] was 27.4 µM; in test [3], 9.23 µM; in test [4], 39.5 µM; in test [5], 23.7 µM.

Turning to `COc1ccc(C2=N[C@@H](c3ccc(Cl)cc3)[C@@H](c3ccc(Cl)cc3)N2C(=O)N2CCNC(=O)C2)c(OC(C)C)c1` [NUTLIN-3], the IC50 amounted to 19.6 µM in test [2], 12.1 µM in test [3], 20.4 µM in test [4] and 15 µM in test [5].

For `COC(=O)C(c1ccc(Cl)cc1)N1C(=O)c2ccc(NCc3ccc(C(F)(F)F)cc3)cc2NC(=S)C1c1ccc(Cl)cc1` (centres undefined), the Ki in test [1] was 6.7 µM. The IC50 was determined as 15.9 µM in test [2], 25.3 µM in test [3], 42.6 µM in test [4] and 25.7 µM in test [5].

On to `COC(=O)C(c1ccc(Cl)cc1)N1C(=O)c2cc(Cl)ccc2NC(=S)C1c1ccc(Cl)cc1` (centres undefined), for which the Ki in test [1] was 0.721 µM. Moreover, the IC50 was determined as 3.5 µM in test [2], 8.91 µM in test [3], 24.7 µM in test [4] and 18.7 µM in test [5].

For `COC(=O)C(c1ccc(F)cc1)N1C(=O)c2cc(Cl)ccc2NC(=S)C1c1ccc(Cl)cc1` (centres undefined), the IC50 was found to be 7.23 µM in test [2], 6.48 µM in test [3], 29.7 µM in test [4] and 19.7 µM in test [5].

Consider `COC(=O)C(c1ccc(F)cc1)N1C(=O)c2ccc(F)cc2NC(=S)C1c1ccc(Cl)cc1` (centres undefined), for which the Ki in test [1] stood at 1.05 µM. The IC50 in test [2] was determined as 28 µM; in test [3], 32.1 µM; in test [4], 25 µM; in test [5], 19.4 µM.

As to `COC(=O)C(c1ccc(Cl)cc1)N1C(=O)c2ccc(F)cc2NC(=S)C1c1ccc(Cl)cc1` (centres undefined), the IC50 came to 12 µM in test [2], 6.59 µM in test [3], 16.5 µM in test [4] and 8.44 µM in test [5].

In the case of `COC(=O)C(c1ccc(Cl)cc1)N1C(=O)c2cc(F)c(F)cc2NC(=S)C1c1ccc(Cl)cc1` (centres undefined), the Ki in test [1] is greater than 100 µM. Moreover, the IC50 in test [2] is 2.61 µM; in test [3], 3.84 µM; in test [4], 5.73 µM; in test [5], 11.3 µM.

For the molecule `COC(=O)C(c1ccc(Cl)cc1)N1C(=O)c2ccc(Cl)cc2NC(=S)C1c1ccc(OC)cc1` (centres undefined), the Ki in test [1] is 11.9 µM. The IC50 is 33.9 µM in test [2], greater than 100 µM in test [3], greater than 100 µM in test [4] and greater than 100 µM in test [5].

As for `CCOC(=O)CSC1=Nc2cc(OC)ccc2C(=O)N(C(C(=O)OC)c2ccc(Cl)cc2)C1c1ccc(Cl)cc1` (centres undefined), the Ki in test [1] was found to be 21.1 µM. Moreover, the IC50 in test [2], in test [3], in test [4] and in test [5] was greater than 100 µM each time.

Turning to `COC(=O)C(c1ccc(Cl)cc1)N1C(=O)c2cc(C)ccc2NC(=S)C1c1ccc(Cl)cc1` (centres undefined), the Ki in test [1] is 37.7 µM. Also, the IC50 in test [2] is 32.7 µM; in test [3] it was 25.5 µM; in test [4], 73.6 µM; in test [5] it was greater than 100 µM.

Regarding `COC(=O)C(c1ccc(Cl)cc1)N1C(=O)c2ccc(Br)cc2NC(=S)C1c1ccc(Cl)cc1` (centres undefined), in test [1], the Ki worked out at 3.98 µM. Moreover, the IC50 in test [2] is 35.7 µM; in test [3], 11 µM; in test [4] it was 35.4 µM; in test [5], greater than 100 µM.

With `COC(=O)C(c1ccc(Cl)cc1)N1C(=O)c2cccc(Cl)c2NC(=S)C1c1ccc(Cl)cc1` (centres undefined), the Ki in test [1] was greater than 100 µM. Moreover, the IC50 was 88.5 µM in test [2], 61.8 µM in test [3], greater than 100 µM in test [4] and greater than 100 µM in test [5].

As for `COC(=O)C(c1ccc(Cl)cc1)N1C(=O)c2ccc(Cl)cc2NC(=S)C1c1ccc(Cl)cc1` (centres undefined), the inhibition constant (Ki) in test [1] worked out at 1.37 µM. The IC50 in test [2] is 12.1 µM; in test [3], 11.1 µM; in test [4] it was 16.5 µM; in test [5], 37.2 µM.

As to `COC(=O)C(c1ccc(Cl)cc1)N1C(=O)c2cccc(C)c2NC(=S)C1c1ccc(Cl)cc1` (centres undefined), the Ki in test [1] is greater than 100 µM. Also, the IC50 in test [2] was 27.8 µM; in test [3], 19.1 µM; in test [4] it was 73.3 µM; in test [5], greater than 100 µM.

For the molecule `COC(=O)C(c1ccc(Cl)cc1)N1C(=O)c2cccc(OC)c2NC(=S)C1c1ccc(Cl)cc1` (centres undefined), the Ki in test [1] was 8.18 µM. For the same molecule, the 50% inhibitory concentration (IC50) in test [2], in test [3], in test [4] and in test [5] was greater than 100 µM throughout.

Take `COC(=O)C(c1ccc(Cl)cc1)N1C(=O)c2ccc(C(F)(F)F)cc2NC(=S)C1c1ccc(Cl)cc1` (centres undefined): the IC50 in test [2] was 5.69 µM; in test [3], 6.78 µM; in test [4], 11.1 µM; in test [5] it was 26.9 µM.

Turning to `COC(=O)C(c1ccc(Cl)cc1)N1C(=O)c2cc(F)ccc2NC(=S)C1c1ccc(Cl)cc1` (centres undefined), the half-maximal inhibitory concentration (IC50) in test [2] is 7.53 µM; in test [3] it was 11.9 µM; in test [4] it was 14.5 µM; in test [5], 12.9 µM.
